# Tests used:
# [1] = test system: High fat diet-fed (HFD-fed) mice; experiment: Fecal protein concentration-increasing test using HFD-fed mouse (Test Example 2-2); assay type: in vivo; settings: male, 47-week old, 10 mg/kg orally, whole feces of first day of administration, average ± standard deviation, five mice
# Protocol: (§1) High fat diet-fed (HFD-fed) mice (D12079B diet, male, 47-week old) were orally administered with a 0.5% methyl cellulose suspension containing a test compound (10 mg/kg) (compound administration group, five mice per group) or a 0.5% methyl cellulose suspension (compound non-administration group (vehicle), five mice per group), and whole feces were collected on the first day of administration. Dried feces were dissolved in 0.5 N NaOH, followed by centrifugation at 12,000 rpm. The protein concentration in the supernatant was quantitatively measured (Lowry method), and the amount of protein contained in 1 g of feces was calculated as the fecal protein concentration (mg/g feces). The average and the standard deviation of each group are shown below.
# [2] = target: T1, Human recombinant enteropeptidase (Homo sapiens, UniProt P98073); experiment: Human enteropeptidase inhibitory activity (Test Example 1); assay type: biochemical; settings: 3.3 μM test compound, inhibition rate from fluorescence intensity at 2 hours after the start of the reaction; for inhibition at 3.3 µM: read-out: 3.3 μM Inhibition
# T1 construct: purchased ITSI-Biosciences LLC #REN-260
# Method in brief: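 Recombinant human enteropeptidase in 50 mM Tricine pH 8.0, 0.01% Tween 20, 10 mM CaCl2, with a 5FAM/CPQ2-quenched peptide substrate (2.1 μM solution before mixing). Compound came from 1 mM DMSO stock diluted 100-fold in buffer. Fluorescence (ex 485/em 535 nm) at 2 h gave % inhibition versus no-compound and no-enzyme controls.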
# [3] = test system: Diet-induced obesity (DIO) mice; experiment: Anti-obesity effect test using DIO mouse (Test Example 3); assay type: in vivo; settings: male, 32-week old, average ± standard deviation, six mice
# Protocol: Diet-induced obesity (DIO) mice (D12079B diet, male, 32-week old) were orally administered with a 0.5% methyl cellulose suspension containing a test compound (10 mg/kg) (compound administration group, six mice per group) or a 0.5% methyl cellulose suspension (compound non-administration group (vehicle), six mice per group) once a day for one week. The averages and the standard deviations of the body weights at the start of administration and after continuous administration for one week are shown below.
# [4] = test system: High fat diet-fed (HFD-fed) mice; experiment: Fecal protein concentration-increasing test using HFD-fed mouse (Test Example 2-1); assay type: in vivo; settings: male, 19-week old, 10 mg/kg orally, whole feces of first day of administration, average ± standard deviation, six mice
# Protocol: as §1, with “diet, male, 19-week old) were” for “diet, male, 47-week old) were”, “administration group, six mice per” for “administration group, five mice per”, “supernatant was then quantitatively measured” for “supernatant was quantitatively measured”
# T1 sequence (P98073 whole entry): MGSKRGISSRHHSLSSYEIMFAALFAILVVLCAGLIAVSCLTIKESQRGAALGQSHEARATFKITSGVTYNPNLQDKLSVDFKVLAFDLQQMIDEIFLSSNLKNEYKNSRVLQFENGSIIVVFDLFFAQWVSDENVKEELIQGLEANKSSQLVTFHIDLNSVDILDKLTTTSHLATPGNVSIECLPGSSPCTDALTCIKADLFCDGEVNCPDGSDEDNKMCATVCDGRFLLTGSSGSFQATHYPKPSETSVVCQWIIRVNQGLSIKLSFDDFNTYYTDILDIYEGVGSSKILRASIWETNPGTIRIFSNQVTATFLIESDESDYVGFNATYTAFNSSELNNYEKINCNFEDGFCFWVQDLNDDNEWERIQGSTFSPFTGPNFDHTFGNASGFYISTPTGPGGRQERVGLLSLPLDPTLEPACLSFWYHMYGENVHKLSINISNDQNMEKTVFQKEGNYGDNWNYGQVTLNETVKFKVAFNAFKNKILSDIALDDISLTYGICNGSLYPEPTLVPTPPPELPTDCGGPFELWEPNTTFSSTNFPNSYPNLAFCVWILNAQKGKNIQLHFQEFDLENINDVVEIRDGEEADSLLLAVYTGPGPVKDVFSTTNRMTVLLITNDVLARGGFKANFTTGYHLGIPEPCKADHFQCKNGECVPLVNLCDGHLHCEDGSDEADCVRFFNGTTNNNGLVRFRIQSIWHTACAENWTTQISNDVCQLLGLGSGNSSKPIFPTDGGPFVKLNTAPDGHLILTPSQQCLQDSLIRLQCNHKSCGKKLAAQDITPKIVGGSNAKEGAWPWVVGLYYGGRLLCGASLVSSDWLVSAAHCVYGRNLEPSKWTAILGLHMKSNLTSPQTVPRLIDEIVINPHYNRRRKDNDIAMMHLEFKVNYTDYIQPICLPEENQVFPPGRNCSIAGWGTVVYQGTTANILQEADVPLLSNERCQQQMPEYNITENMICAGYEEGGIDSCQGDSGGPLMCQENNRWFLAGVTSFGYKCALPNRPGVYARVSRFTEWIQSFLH
Compound,Fecal protein concentration (mg/g feces) [1],inhibition at 3.3 µM [2],Body Weight (g) After continuous administration for one week ([3]; 10 mg/kg orally once a day for one week),"Body Weight (g) Start of administration ([3]; group given 10 mg/kg orally once a day, baseline)",Fecal protein concentration (mg/g feces) [4],3.3 μM Inhibition [2]
"N=C(N)Nc1ccc2c(c1)CCCOc1c(cccc1C(=O)N(Cc1cccc(C(=O)O)c1)[C@@H](CC(=O)O)C(=O)O)OC2=O [Example 136, N-((10-Carbamimidamido-13-oxo-6,7,8,13-tetrahydrodibenzo[b,f][1,4]dioxecin-4-yl)carbonyl)-N-(3-carboxybenzyl)-L-aspartic acid]",274.3 ± 74.6 mg/g feces,100%,–,–,–,–
"N=C(N)Nc1ccc2c(c1)CCCOc1c(cccc1C(=O)N[C@@H](CC(=O)O)C(=O)O)OC2=O [Example 3, N-((10-Carbamimidamido-13-oxo-6,7,8,13-tetrahydrodibenzo[b,f][1,4]dioxecin-4-yl)carbonyl)aspartic acid]",–,–,41.4 ± 2.2 g,44.5 ± 2.2 g,233.3 ± 35.9 mg/g feces,101%
"N=C(N)Nc1ccc2c(c1)CCCOc1c(cccc1C(=O)N(CC(=O)O)[C@@H](Cc1ccc(OCCN(CC(=O)O)Cc3ccccc3)cc1)C(=O)O)OC2=O [Example 122, O-(2-(Benzyl(carboxymethyl)amino)ethyl)-N-((10-carbamimidamido-13-oxo-6,7,8,13-tetrahydrodibenzo[b,f][1,4]dioxecin-4-yl)carbonyl)-N-(carboxymethyl)-L-tyrosine]",165.4 ± 16.2 mg/g feces,101%,–,–,–,–
"COc1ccc(C[C@@H](C(=O)O)N(CC(=O)O)C(=O)c2cccc3c2OCCCc2cc(NC(=N)N)ccc2C(=O)O3)cc1 [Example 94, N-((10-Carbamimidamido-13-oxo-6,7,8,13-tetrahydrodibenzo[b,f][1,4]dioxecin-4-yl)carbonyl)-N-(carboxymethyl)-O-methyl-L-tyrosine]",201.0 ± 21.8 mg/g feces,101%,–,–,–,–

# Reference: US9975903B2, “Condensed heterocyclic compound” (Takeda Pharmaceutical Company Limited, priority 2014, dated 2018)
